# Key:
# Format in all cases: in vivo
# [1] = system: wheat (Triticum aestivum); test: Test B pre-/postemergence plant response
# Summary of the method: (§1)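 Ratings reflect visual injury versus untreated controls, from 0 for no effect to 100 for complete control, assessed roughly 10 days after treatment. Formulation: non-phytotoxic solvent mix with surfactant; pre- and postemergence sprays on plants grown in loam soil and sand.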
# [2] = system: morningglory (Ipomoea spp.); test: Test B pre-/postemergence plant response
# Summary of the method: as §1
# [3] = system: large (Lg) crabgrass (Digitaria sanguinalis); test: Test B pre-/postemergence plant response
# Summary of the method: as §1
# [4] = system: giant foxtail (Setaria faberii); test: Test B pre-/postemergence plant response
# Summary of the method: as §1
# [5] = system: barnyardgrass (Echinochloa crus-galli); test: Test B pre-/postemergence plant response
# Summary of the method: as §1
# [6] = system: pigweed (Amaranthus retroflexus); test: Test B pre-/postemergence plant response
# Summary of the method: as §1
# [7] = system: corn (Zea mays); test: Test B pre-/postemergence plant response
# Summary of the method: as §1
# [8] = system: velvetleaf (Abutilon theophrasti); test: Test B pre-/postemergence plant response
# Summary of the method: as §1
# [9] = system: barnyardgrass (Echinochloa crus-galli); test: Test C flooded paddy test plant response; conditions: Flood, 250 g ai/ha; scale of 0 to 100 where 0 is no effect and 100 is complete control; 13 to 15 days
# Summary of the method: (§2)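 Two-leaf stage → flood to 3 cm → compound into water → hold depth, greenhouse 13–15 d → visual score vs controls (0 none, 100 complete control).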
# [10] = system: small-flower umbrella sedge (Cyperus difformis); test: Test C flooded paddy test plant response; conditions: Flood, 250 g ai/ha; scale of 0 to 100 where 0 is no effect and 100 is complete control; 13 to 15 days
# Summary of the method: as §2
# [11] = system: rice (Oryza sativa); test: Test C flooded paddy test plant response; conditions: Flood, 250 g ai/ha; scale of 0 to 100 where 0 is no effect and 100 is complete control; 13 to 15 days
# Summary of the method: as §2
# [12] = system: ducksalad (Heteranthera limosa); test: Test C flooded paddy test plant response; conditions: Flood, 250 g ai/ha; scale of 0 to 100 where 0 is no effect and 100 is complete control; 13 to 15 days
# Summary of the method: as §2
# [13] = Postemergence, 500 g ai/ha, 0 to 100 scale (0 no effect, 100 complete control)
# [14] = Preemergence, 500 g ai/ha, 0 to 100 scale where 0 is no effect and 100 is complete control
# [15] = 125 g ai/ha, postemergence, 0 to 100 scale, 0 no effect, 100 complete control
# [16] = Preemergence, 125 g ai/ha, 0 to 100 scale (0 no effect, 100 complete control)
# [17] = 500 g ai/ha, postemergence, 0 to 100 scale, 0 no effect, 100 complete control
Compound,"Plant response rating, Wheat [1, 14]","Plant response rating, Morningglory [2, 14]","Plant response rating, Crabgrass, Large [3, 14]","Plant response rating, Foxtail, Giant [4, 14]","Plant response rating, Barnyardgrass [5, 14]","Plant response rating, Pigweed [6, 14]","Plant response rating, Corn [7, 14]","Plant response rating, Velvetleaf [8, 14]",Barnyardgrass plant response rating [9],"Sedge, Umbrella plant response rating [10]",Rice plant response rating [11],Ducksalad plant response rating [12],"Plant response rating, Wheat [1, 15]","Wheat plant response rating [1, 16]","Plant response rating, Morningglory [2, 15]","Morningglory plant response rating [2, 16]","Plant response rating, Crabgrass, Large [3, 15]","Crabgrass, Large plant response rating [3, 16]","Plant response rating, Foxtail, Giant [4, 15]","Foxtail, Giant plant response rating [4, 16]",also measured
Cn1nc(C(F)(F)F)cc1-c1c(C#N)cccc1Oc1ncc(Cl)cn1 [Compound 136],30,90,100,100,100,100,40,100,0,40,0,40,,,,,,,,,"Plant response rating, Wheat [1, 13]: 40; Plant response rating, Morningglory [2, 13]: 90; Plant response rating, Crabgrass, Large [3, 13]: 90; Plant response rating, Foxtail, Giant [4, 13]: 80; Plant response rating, Barnyardgrass [5, 13]: 90; Plant response rating, Pigweed [6, 13]: 100; Plant response rating, Corn [7, 13]: 70; Plant response rating, Velvetleaf [8, 13]: 100"
Clc1cnc(Oc2ccccc2-c2nccs2)nc1 [Compound 199],0,0,10,0,0,30,0,10,0,80,0,0,0,0,0,0,0,0,0,0,"Plant response rating, Wheat [1, 13]: 0; Plant response rating, Morningglory [2, 13]: 10; Plant response rating, Crabgrass, Large [3, 13]: 10; Plant response rating, Foxtail, Giant [4, 13]: 0; Plant response rating, Barnyardgrass [5, 15]: 0; Plant response rating, Barnyardgrass [5, 13]: 0; Barnyardgrass plant response rating [5, 16]: 0; Plant response rating, Pigweed [6, 15]: 10; Plant response rating, Pigweed [6, 13]: 30; Pigweed plant response rating [6, 16]: 0; Plant response rating, Corn [7, 15]: 0; Plant response rating, Corn [7, 13]: 0; Corn plant response rating [7, 16]: 0; Plant response rating, Velvetleaf [8, 15]: 0; Plant response rating, Velvetleaf [8, 13]: 10; Velvetleaf plant response rating [8, 16]: 0"
O=[N+]([O-])c1cc(Cl)cnc1-c1ccccc1Oc1ncc(Cl)cn1 [Compound 201],0,0,0,0,0,0,0,0,0,0,0,0,0,0,0,0,0,0,0,0,"Plant response rating, Wheat [1, 17]: 0; Plant response rating, Morningglory [2, 17]: 0; Plant response rating, Crabgrass, Large [3, 17]: 0; Plant response rating, Foxtail, Giant [4, 17]: 0; Plant response rating, Barnyardgrass [5, 15]: 0; Plant response rating, Barnyardgrass [5, 17]: 0; Barnyardgrass plant response rating [5, 16]: 0; Plant response rating, Pigweed [6, 15]: 0; Plant response rating, Pigweed [6, 17]: 0; Pigweed plant response rating [6, 16]: 0; Plant response rating, Corn [7, 15]: 0; Plant response rating, Corn [7, 17]: 0; Corn plant response rating [7, 16]: 0; Plant response rating, Velvetleaf [8, 15]: 0; Plant response rating, Velvetleaf [8, 17]: 0; Velvetleaf plant response rating [8, 16]: 0"
N#Cc1cccc(Oc2ncc(Cl)cn2)c1-c1ccc(Cl)cn1 [Compound 202],20,20,100,100,80,100,0,60,0,80,0,80,0,0,10,0,10,90,30,70,"Plant response rating, Wheat [1, 17]: 0; Plant response rating, Morningglory [2, 17]: 40; Plant response rating, Crabgrass, Large [3, 17]: 70; Plant response rating, Foxtail, Giant [4, 17]: 80; Plant response rating, Barnyardgrass [5, 15]: 10; Plant response rating, Barnyardgrass [5, 17]: 40; Barnyardgrass plant response rating [5, 16]: 10; Plant response rating, Pigweed [6, 15]: 90; Plant response rating, Pigweed [6, 17]: 100; Pigweed plant response rating [6, 16]: 100; Plant response rating, Corn [7, 15]: 0; Plant response rating, Corn [7, 17]: 30; Corn plant response rating [7, 16]: 0; Plant response rating, Velvetleaf [8, 15]: 10; Plant response rating, Velvetleaf [8, 17]: 30; Velvetleaf plant response rating [8, 16]: 0"

# — patent publication US10131652B2, “Pyrimidinyloxy benzene derivatives as herbicides” (E. I. DU PONT DE NEMOURS AND COMPANY, priority 2014, dated 2018)
